target: T1, c-kit (Homo sapiens, UniProt P10721); assay: Inhibitory activity against c-kit autophosphorylation (MO7e cells, h-SCF); format: cell-based; details: MO7e cells, 50 ng/ml h-SCF; read-out: c-kit IC50
T1 construct: MO7e (human megakaryocytic leukemia cell line) which had been arrested for 20 hr; endogenous in cells; host or cells: MO7e human megakaryocytic leukemia cell line
Experimental: Inhibitory Activity Against c-kit Autophosphorylation
MO7e (human megakaryocytic leukemia cell line) which had been arrested for 20 hr was seeded into 96 well plates at an amount of 2×10^5 per well. A solution of a test compound in DMSO was added, and a reaction was then allowed to proceed for one hr. Thereafter, the cells were stimulated by 50 ng/ml of h-SCF for 5 min, followed by replacement with lysate buffer to solubilize the cells.
Next, the solubilized cell sap was transferred to a 96-well plate with an anti-phosphotyrosine antibody (PY-20) previously immobilized thereon, and a reaction was allowed to proceed. Thereafter, the cells were reacted with an anti-c-kit antibody (c-19, Santa Cruz) as a primary antibody and were labelled with GAR (anti-rabbit IgG, horseradish peroxidase, Amersham) as a secondary antibody. Color development was then carried out in a peroxidase color development kit (Sumitomo Bakelite Co., Ltd.), and the absorbance was measured at a wavelength of 450 nm.

T1 sequence (P10721 26-976): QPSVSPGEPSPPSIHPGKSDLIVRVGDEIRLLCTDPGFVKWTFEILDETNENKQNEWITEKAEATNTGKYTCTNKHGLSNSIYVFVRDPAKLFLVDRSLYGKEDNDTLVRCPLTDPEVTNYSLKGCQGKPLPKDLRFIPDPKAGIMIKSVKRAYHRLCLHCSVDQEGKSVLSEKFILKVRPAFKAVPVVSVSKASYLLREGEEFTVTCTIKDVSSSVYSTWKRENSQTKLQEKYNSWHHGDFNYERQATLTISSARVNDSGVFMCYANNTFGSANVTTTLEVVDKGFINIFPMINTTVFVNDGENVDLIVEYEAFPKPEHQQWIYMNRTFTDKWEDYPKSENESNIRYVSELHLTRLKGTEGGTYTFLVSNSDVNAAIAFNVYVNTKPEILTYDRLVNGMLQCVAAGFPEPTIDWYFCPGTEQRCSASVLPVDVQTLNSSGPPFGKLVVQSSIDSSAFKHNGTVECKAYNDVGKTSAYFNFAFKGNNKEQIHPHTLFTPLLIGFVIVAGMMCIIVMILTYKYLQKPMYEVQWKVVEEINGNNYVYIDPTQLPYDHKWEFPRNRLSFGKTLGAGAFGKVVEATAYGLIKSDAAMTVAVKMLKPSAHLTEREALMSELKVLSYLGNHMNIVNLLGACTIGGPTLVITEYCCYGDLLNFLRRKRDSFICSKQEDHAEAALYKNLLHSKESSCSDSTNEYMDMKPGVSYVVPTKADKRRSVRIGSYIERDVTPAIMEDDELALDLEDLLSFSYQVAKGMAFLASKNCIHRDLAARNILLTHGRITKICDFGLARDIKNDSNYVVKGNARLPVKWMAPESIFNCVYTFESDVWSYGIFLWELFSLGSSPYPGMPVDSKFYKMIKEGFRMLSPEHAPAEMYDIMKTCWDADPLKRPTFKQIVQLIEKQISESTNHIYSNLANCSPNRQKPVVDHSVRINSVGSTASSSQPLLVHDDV

Compound	IC50
COc1cc2nccc(Oc3ccc(NC(=S)NC(=O)Cc4ccccc4F)cc3)c2cc1OC [Example 729, N-{4-[(6,7-Dimethoxy-4-quinolyl)oxy]phenyl}-N′-[2-(2-fluorophenyl)acetyl]thiourea]	302 nM
COc1cc2nccc(Oc3ccc(OCC(=O)Nc4ccc(C)cc4)cc3)c2cc1OC [Example 786, N1-(4-Methylphenyl)-2-{4-[(6,7-dimethoxy-4-quinolyl)oxy]phenoxy}acetamide]	46 nM

same assay, conditions: MO7e cells, h-SCF 50 ng/ml; read-out: c-kit IC50

Compound	IC50
4-Methylbenzyl {2-chloro-4-[(6,7-dimethoxy-4-quinazolinyl)oxy]anilino}methanethioate [Example 111]	750 nM

same assay, conditions: MO7e cells, h-SCF stimulation; read-out: c-kit IC50

Compound	IC50
COc1cc2nccc(Oc3ccc(NC(=S)NC(=O)CCC4CCCC4)c(F)c3)c2cc1OC [Example 1027, N-(3-Cyclopentylpropanoyl)-N′-{4-[(6,7-dimethoxy-4-quinolyl)oxy]-2-fluorophenyl}thiourea]	161 nM
COc1cc2nccc(Oc3ccc(NC(=S)NC(=O)c4c(F)cccc4F)cc3)c2cc1OC [Example 1007, N-(2,6-Difluorobenzoyl)-N′-{4-[(6,7-dimethoxy-4-quinolyl)oxy]phenyl}thiourea]	616 nM
COc1cc2nccc(Oc3ccc(SCCOc4ccc(Cl)cc4Cl)cc3)c2cc1OC [Example 825, 4-(4-{[2-(2,4-Dichlorophenoxy)ethyl]sulfanyl}phenoxy)-6,7-dimethoxyquinoline]	333 nM
COc1cc2nccc(Oc3ccc(NC(=S)NC(=O)c4ccc(Cl)cc4Cl)cc3)c2cc1OC [Example 1008, N-(2,4-Dichlorobenzoyl)-N′-{4-[(6,7-dimethoxy-4-quinolyl)oxy]phenyl}thiourea]	357 nM
COc1cccc(C(=O)NC(=S)Nc2ccc(Oc3ncnc4cc(OC)c(OC)cc34)cc2)c1 [Example 956, N-{4-[(6,7-Dimethoxy-4-quinazolinyl)oxy]phenyl}-N′-(3-methoxybenzoyl)thiourea]	326 nM
COc1cc2nccc(Oc3ccc(NC(=S)NC(=O)c4ccsc4)cc3)c2cc1OC [Example 1034, N-{4-[(6,7-Dimethoxy-4-quinolyl)oxy]phenyl}-N′-(3-thienylcarbonyl)thiourea]	378 nM
COc1ccc(C(=O)NC(=S)Nc2ccc(Oc3ccnc4cc(OC)c(OC)cc34)c(F)c2)c(OC)c1 [Example 1113, N-(2,4-Dimethoxybenzoyl)-N′-{4-[(6,7-dimethoxy-4-quinolyl)oxy]-3-fluorophenyl}thiourea]	785 nM
COc1cc2nccc(Oc3ccc(SCCOc4ccc(C)cc4C)cc3)c2cc1OC [Example 826, 4-(4-{[2-(2,4-Dimethylphenoxy)ethyl]sulfanyl}phenoxy)-6,7-dimethoxyquinoline]	170 nM
COc1cc2nccc(Oc3ccc(NC(=S)NC(=O)c4cc(Cl)cc(Cl)c4)cc3Cl)c2cc1OC [Example 1116, N-{3-Chloro-4-[(6,7-dimethoxy-4-quinolyl)oxy]phenyl}-N′-(3,5-dichlorobenzoyl)thiourea]	878 nM
COc1ccc(C(=O)NC(=S)Nc2ccc(Oc3ccnc4cc(OC)c(OC)cc34)c(F)c2)cc1OC [Example 1070, N-(3,4-Dimethoxybenzoyl)-N′-{4-[(6,7-dimethoxy-4-quinolyl)oxy]-3-fluorophenyl}thiourea]	391 nM

same assay, conditions: Mo7e, figure in parentheses in −( ); at 1000 nM

Compound	inhibition at 1 µM
CCCCCCCCCCCCCC(=O)NC(=S)Nc1ccc(Oc2ccnc3cc(OC)c(OC)cc23)cc1F [Example 1076, N-{4-[(6,7-Dimethoxy-4-quinolyl)oxy]-2-fluorophenyl}-N′-tetradecanoylthiourea]	7%
COc1cc2ncnc(Oc3ccc(NC(=S)NC(=O)c4ccccc4)cc3)c2cc1OC [Example 926, N-Benzoyl-N′-{4-[(6,7-dimethoxy-4-quinazolinyl)oxy]phenyl}thiourea]	31%

same assay, conditions: Mo7e, figure within parentheses in −( ) or >1000( ); at 1000 nM

Compound	inhibition at 1 µM
COc1cc2nccc(Oc3ccc(NC(=O)NN4CCCCC4)c(F)c3)c2cc1OC [Example 613, N-{4-[(6,7-Dimethoxy-4-quinolyl)oxy]-2-fluorophenyl}-N′-(1-piperidinyl)urea]	29%
